According to publication PMC6271239, “Synthesis and in Vitro Evaluation of New Nitro-Substituted Thiazolyl Hydrazone Derivatives as Anticandidal and Anticancer Agents” (Molecules, 2014):
In brackets after ≈: the same amount, converted by molar mass.

Tests used:
[1] = tested on: Candida albicans (ATCC 10231); assay: Anticandidal broth microdilution assay; type: cell-based; conditions: ATCC10231, RPMI, 37 °C, 24 h
Method: (§1) Anticandidal activity assay was performed against Candida albicans (ATCC 10231), Candida utilis (NRRLY 900), Candida tropicalis (NRRLY 12968), Candida krusei (NRRLY 7179), Candida parapsilosis (NRRLY 12696) and Candida glabrata (ATCC 2001) standard strains according to the CSLI method.
(§2) The minimum inhibitory concentration (MIC, µg/mL) values against pathogenic Candida strains were determined by a broth microdilution method using a 96-well plate format. Compounds 1–14 and fluconazole as a standard control were first dissolved in dimethyl sulfoxide (DMSO) (25%) at an initial concentration of 2000 µg/mL.
(§3) All Candida strains were inoculated on Potato Dextrose Agar (PDA) prior the experiments at 37 °C. After the incubation, sufficiently grown microorganisms were inoculated in sterile saline (0.85%), and then standardized according to the turbidity to 5 × 10^3 CFU (McFarland No: 0.5) per well in RPMI medium under sterile conditions. Serial dilutions were prepared in 100 µL RPMI medium with an equal amount of the test samples, and 100 µL each microorganism suspension was pipetted into each well and incubated at 37 °C for 24 h. Positive growth controls (to assess the presence of turbidity) were performed in wells without the test samples, whereas the negative growth control (medium) was also evaluated. MIC was deﬁned as the lowest concentration without any visible growth of the yeast when compared with the growth in the control plate. All experiments were performed in duplicate.

[2] = tested on: Candida glabrata (ATCC 2001); assay: Anticandidal broth microdilution assay; type: cell-based; conditions: Nakaseomyces glabratus, ATCC2001, RPMI, 37 °C, 24 h
Method: as §1, §2, §3

[3] = tested on: Candida krusei (NRRLY 7179); assay: Anticandidal broth microdilution assay; type: cell-based; conditions: Pichia kudriavzevii, RPMI, 37 °C, 24 h
Method: as §1, §2, §3

[4] = tested on: Candida parapsilosis (NRRLY 12696); assay: Anticandidal broth microdilution assay; type: cell-based; conditions: Lodderomyces parapsilosis, RPMI, 37 °C, 24 h
Method: as §1, §2, §3

[5] = tested on: Candida tropicalis (NRRLY 12968); assay: Anticandidal broth microdilution assay; type: cell-based; conditions: RPMI, 37 °C, 24 h
Method: as §1, §2, §3

[6] = tested on: Candida utilis (NRRLY 900); assay: Anticandidal broth microdilution assay; type: cell-based; conditions: Williopsis jadinii, RPMI, 37 °C, 24 h
Method: as §1, §2, §3

[7] = tested on: MCF-7 human breast adenocarcinoma cell line; assay: MTT cytotoxicity assay; type: cell-based; conditions: 3.9–500 µg/mL; for IC50: Homo sapiens, MCF7, 24 h incubation
Method: (§4) The tetrazolium salt, MTT (3-(4,5-dimethylthiazol-2-yl)-2,5-diphenyltetrazolium bromide), is used to measure the metabolic activity of viable cells. Tetrazolium salts are reduced to formazan by mitochondrial succinate dehydrogenase, an enzyme which is only active in cells with an intact metabolism. The formazan can be quantified photometrically and it is in correlation with the number of viable cells. Cytotoxicity was tested using the MCF-7 human breast adenocarcinoma cell line and NIH/3T3 mouse embryonic fibroblast cell line. NIH/3T3 and MCF-7 cells were incubated in RPMI medium (Hyclone, Thermo Scientific, Logan, UT, USA) supplemented with fetal calf serum (Hyclone), 100 IU/mL penicillin and […] (Hyclone) at 37 °C in a humidified atmosphere of 95% air and 5% CO2. MCF-7 and NIH/3T3 cells were seeded at 10,000 cells into each well of 96-well plates. After 24 h of incubating period, the culture mediums were removed and compounds were added to culture medium at 3.9–500 µg/mL concentrations. After 24 h of incubation, cytotoxicity tests were performed using the MTT assay, which measures mitochondrial activity, in MCF-7 and NIH/3T3 cells. Firstly, 20 µL MTT solution (5 mg/mL MTT powder in PBS) was added to each well. After 3 h incubation period at 37 °C, 5% CO2, the contents of the wells were removed and 100 µL DMSO was added to each well. Then, OD of the plate was read at 570 nm. Inhibition% was calculated for each concentration of the compounds. IC50 values were estimated by non-linear regression analysis. Cisplatin was used as a positive control. Stock solutions of compounds were prepared in DMSO and further dilutions were made with fresh culture medium. All experiments were performed in duplicate.

[8] = tested on: NIH/3T3 mouse embryonic fibroblast cell line; assay: MTT cytotoxicity assay; type: cell-based; conditions: 3.9–500 µg/mL; for IC50: Mus musculus, NIH3T3, 24 h incubation
Method: as §4

| SMILES | MIC [1] | MIC [2] | MIC [3] | MIC [4] | MIC [5] | MIC [6] | IC50 [7] | IC50 [8] | melting point | IC50 MCF-7 Cell Line ([7]; 24 h incubation) | IC50 NIH/3T3 Cell Line ([8]; 24 h incubation) |
| --- | --- | --- | --- | --- | --- | --- | --- | --- | --- | --- | --- |
| Cc1ccc(-c2csc(NN=Cc3ccc(-c4ccc([N+](=O)[O-])cc4)o3)n2)cc1 [Compound 6, 2-[2-((5-(4-Nitrophenyl)furan-2-yl)methylene)hydrazinyl]-4-(p-tolyl)thiazole] | 500 µg/mL (≈ 1240 µM) | 500 µg/mL (≈ 1240 µM) | 1000 µg/mL (≈ 2470 µM) | 500 µg/mL (≈ 1240 µM) | 1000 µg/mL (≈ 2470 µM) | 500 µg/mL (≈ 1240 µM) | > 500 µg/mL | > 500 µg/mL | 236 to 237 °C |  |  |
| O=[N+]([O-])c1ccc(-c2csc(NN=Cc3ccc(-c4ccc([N+](=O)[O-])cc4)o3)n2)cc1 [Compound 2, 4-(4-Nitrophenyl)-2-[2-((5-(4-nitrophenyl)furan-2-yl)methylene)hydrazinyl]thiazole] | 500 µg/mL (≈ 1150 µM) | 1000 µg/mL (≈ 2300 µM) | 500 µg/mL (≈ 1150 µM) | 500 µg/mL (≈ 1150 µM) | 500 µg/mL (≈ 1150 µM) | 500 µg/mL (≈ 1150 µM) | > 500 µg/mL | > 500 µg/mL | 252 to 254 °C |  |  |
| O=[N+]([O-])c1cc(Cl)ccc1-c1ccc(C=NNc2nc(-c3ccccc3)cs2)o1 [Compound 8, 2-[2-((5-(4-Chloro-2-nitrophenyl)furan-2-yl)methylene)hydrazinyl]-4-phenylthiazole] | 500 µg/mL (≈ 1180 µM) | 1000 µg/mL (≈ 2350 µM) | 500 µg/mL (≈ 1180 µM) | 1000 µg/mL (≈ 2350 µM) | 500 µg/mL (≈ 1180 µM) | 500 µg/mL (≈ 1180 µM) | > 500 µg/mL | > 500 µg/mL | 194 to 195 °C |  |  |
| O=[N+]([O-])c1cc(Cl)ccc1-c1ccc(C=NNc2nc(-c3ccc(Br)cc3)cs2)o1 [Compound 12, 4-(4-Bromophenyl)-2-[2-((5-(4-chloro-2-nitrophenyl)furan-2-yl)methylene)hydrazinyl]thiazole] | 500 µg/mL (≈ 993 µM) | 500 µg/mL (≈ 993 µM) | 1000 µg/mL (≈ 1990 µM) | 500 µg/mL (≈ 993 µM) | 1000 µg/mL (≈ 1990 µM) | 1000 µg/mL (≈ 1990 µM) | 500 µg/mL (≈ 993 µM) | > 500 µg/mL | 199 to 201 °C |  |  |
| O=[N+]([O-])c1ccc(-c2ccc(C=NNc3nc(-c4ccc(Cl)cc4)cs3)o2)cc1 [Compound 4, 4-(4-Chlorophenyl)-2-[2-((5-(4-nitrophenyl)furan-2-yl)methylene)hydrazinyl]thiazole] | 500 µg/mL (≈ 1180 µM) | 500 µg/mL (≈ 1180 µM) | 500 µg/mL (≈ 1180 µM) | 1000 µg/mL (≈ 2350 µM) | 500 µg/mL (≈ 1180 µM) | 500 µg/mL (≈ 1180 µM) | > 500 µg/mL | > 500 µg/mL | 229 to 231 °C |  |  |
| O=[N+]([O-])c1ccc(-c2ccc(C=NNc3nc(-c4ccc(Br)cc4)cs3)o2)cc1 [Compound 5, 4-(4-Bromophenyl)-2-[2-((5-(4-nitrophenyl)furan-2-yl)methylene)hydrazinyl]thiazole] | 500 µg/mL (≈ 1070 µM) | 1000 µg/mL (≈ 2130 µM) | 1000 µg/mL (≈ 2130 µM) | 500 µg/mL (≈ 1070 µM) | 500 µg/mL (≈ 1070 µM) | 500 µg/mL (≈ 1070 µM) | > 500 µg/mL | > 500 µg/mL | 243 to 244 °C |  |  |
| N.N.[Cl][Pt][Cl] [Cisplatin, reference compound] |  |  |  |  |  |  |  |  |  | 31.2 µg/mL | 330.58 µg/mL |
| COc1ccc(-c2csc(NN=Cc3ccc(-c4ccc(Cl)cc4[N+](=O)[O-])o3)n2)cc1 [Compound 14, 2-[2-((5-(4-Chloro-2-nitrophenyl)furan-2-yl)methylene)hydrazinyl]-4-(4-methoxyphenyl)thiazole] | 250 µg/mL (≈ 550 µM) | 500 µg/mL (≈ 1100 µM) | 500 µg/mL (≈ 1100 µM) | 500 µg/mL (≈ 1100 µM) | 250 µg/mL (≈ 550 µM) | 250 µg/mL (≈ 550 µM) | > 500 µg/mL | > 500 µg/mL | 206 to 207 °C |  |  |
| Cc1ccc(-c2csc(NN=Cc3ccc(-c4ccc(Cl)cc4[N+](=O)[O-])o3)n2)cc1 [Compound 13, 2-[2-((5-(4-Chloro-2-nitrophenyl)furan-2-yl)methylene)hydrazinyl]-4-(p-tolyl)thiazole] | 250 µg/mL (≈ 570 µM) | 500 µg/mL (≈ 1140 µM) | 500 µg/mL (≈ 1140 µM) | 1000 µg/mL (≈ 2280 µM) | 500 µg/mL (≈ 1140 µM) | 500 µg/mL (≈ 1140 µM) | 500 µg/mL (≈ 1140 µM) | > 500 µg/mL | 166 to 167 °C |  |  |
| O=[N+]([O-])c1ccc(-c2ccc(C=NNc3nc(-c4ccc(F)cc4)cs3)o2)cc1 [Compound 3, 4-(4-Fluorophenyl)-2-[2-((5-(4-nitrophenyl)furan-2-yl)methylene)hydrazinyl]thiazole] | 500 µg/mL (≈ 1220 µM) | 1000 µg/mL (≈ 2450 µM) | 500 µg/mL (≈ 1220 µM) | 500 µg/mL (≈ 1220 µM) | 500 µg/mL (≈ 1220 µM) | 500 µg/mL (≈ 1220 µM) | 500 µg/mL (≈ 1220 µM) | 250 µg/mL (≈ 612 µM) | 241 to 242 °C |  |  |
| O=[N+]([O-])c1cc(Cl)ccc1-c1ccc(C=NNc2nc(-c3ccc(F)cc3)cs2)o1 [Compound 10, 2-[2-((5-(4-Chloro-2-nitrophenyl)furan-2-yl)methylene)hydrazinyl]-4-(4-fluorophenyl)thiazole] | 500 µg/mL (≈ 1130 µM) | 1000 µg/mL (≈ 2260 µM) | 1000 µg/mL (≈ 2260 µM) | 500 µg/mL (≈ 1130 µM) | 500 µg/mL (≈ 1130 µM) | 250 µg/mL (≈ 565 µM) | 122 µg/mL (≈ 275 µM) | 250 µg/mL (≈ 565 µM) | 208 to 209 °C |  |  |
| OC(Cn1cncn1)(Cn1cncn1)c1ccc(F)cc1F [Fluconazole, reference compound] | 1 µg/mL (≈ 3.27 µM) | 2 µg/mL (≈ 6.53 µM) | 2 µg/mL (≈ 6.53 µM) | 2 µg/mL (≈ 6.53 µM) | 1 µg/mL (≈ 3.27 µM) | 2 µg/mL (≈ 6.53 µM) |  |  |  |  |  |
| O=[N+]([O-])c1cc(Cl)ccc1-c1ccc(C=NNc2nc(-c3ccc(Cl)cc3)cs2)o1 [Compound 11, 2-[2-((5-(4-Chloro-2-nitrophenyl)furan-2-yl)methylene)hydrazinyl]-4-(4-chlorophenyl)thiazole] | 500 µg/mL (≈ 1090 µM) | 1000 µg/mL (≈ 2180 µM) | 1000 µg/mL (≈ 2180 µM) | 500 µg/mL (≈ 1090 µM) | 500 µg/mL (≈ 1090 µM) | 500 µg/mL (≈ 1090 µM) | 125 µg/mL (≈ 272 µM) | > 500 µg/mL | 186 to 187 °C |  |  |
